The subject of data set [1] is SARS-CoV-2. In words: microbe, parasite or virus in culture. It is filed as cell-based.
In data set [2] the test system is Vero CCL-81 cells. The data set can be described thus: cells. It is filed as cell-based, African green monkey. As to conditions: non-infected Vero CCL-81, 48 h; for IC50: Chlorocebus sabaeus, DAPI, read-out: IC50 (ñ inf), relative cell nucleus number.
Data set [3] deals with SARS-CoV-2. Format: cell-based.
Another data set relates to spike protein. Format: cell-based, SARS-CoV-2.
Data set [4] relates to ACE2. It is filed as cell-based, African green monkey. As to conditions: compounds at IC50 (50 μM for 9); for ACE2 levels compared to vehicle: infected Vero CCL-81, Western blot; for ACE2 Levels (Vero CCL-81 Monkey Cells): infected cells.
Data set [5] has as its system ACE2. The data set can be described thus: ACE2 expression levels in MDA-MB-231 cells (Western blot). Format: cell-based, human. As to conditions: 10 μM, 48 h. As to the method: For protein expression analysis, MDA-MB-231 and Vero CCL-81 cells were seeded in 6-well plates and incubated for 24 h. Then, the cells were treated with the tested compounds at 10 μM or at their respective IC50. Cell pellets were collected after 48 h incubation, and the following lysis, quantification, and Western Blot procedures were performed as previously described, except for the following points: (i) no phosphatase inhibitor was used; (ii) a total of 15 μg of protein lysates obtained from MDA-MB-231 cells treatment or 50 μg of protein lysates obtained from Vero CCL-81 cells were loaded and separated in 10% SDS-Page gels; (iii) the transference to a nitrocellulose membrane (GE Healthcare Life science, Chalfont St Giles, UK; GE10600002) occurred for 1 h 45 min at 100 V; (iv) the primary antibodies (1:2000) used were: mouse anti-ACE2 monoclonal antibody (CL4035; Thermo Fischer Scientific; Waltham, MA, USA) and mouse anti-actin (sc-47778; Santa Cruz Biotechnology, Dallas, TX, USA).

The next data set deals with A549 cells. In words: Sulforhodamine B (SRB) cytotoxicity assay in A549 cells. Format: cell-based, human. As to conditions: for Cytotoxicity in A549 human lung cells: 48 h, SRB, five serial dilutions. As to the method: (§1) To determine the cytotoxic effect of the tested compounds, the SRB assay was performed according to the previously described protocols. The concentration of each compound that caused 50% of cell growth inhibition (GI50) was determined from the dose response curve. A549 cells were plated in 96-well plates at a previously determined optimal cell concentration (5 × 10^4 cells/mL) and incubated for 24 h. Then, cells were treated with different concentrations of the tested compounds for 48 h. The following procedure was accomplished as previously described. Using the Gen5^TM software (version 1.04.5), the absorbance was measured at 510 nm in a multiplate reader (Synergy^TM Mx, Biotek Instruments Inc., Winooski, VT, USA).

The subject of data set [6] is Vero CCL-81 cells.
A further data set in a line: in vitro. As to conditions: African green monkey.
The nature of data set [7]: Sulforhodamine B (SRB) cytotoxicity assay in A549 cells. It is filed as cell-based, human. As to conditions: human, A549 cells; SRB assay, 48 h; read-out: Cytotoxic IC50 (A549 Human Lung Cells). As to the method:
as §1

In data set [8] the test system is Vero CCL-81 cells. The data set can be described thus: cells. As to conditions: Chlorocebus sabaeus, 48 h, read-out: IC50 (inf), relative cell nucleus number.
Setting [9] is: Severe acute respiratory syndrome coronavirus 2, in Primates, 48 h, read-out: Antiviral IC50 (Vero CCL-81 Monkey Cells).
The mark [10] stands for this setting: Homo sapiens, A549, 48 h, read-out: GI50 (concentration that inhibits 50% of cell growth), A549, 48 h, SRB assay.

Structures are written as SMILES. Entries after “also recorded” stand apart in the source; their conditions may differ. Where two headings read alike, the source gives them in different places.

Consider `Cc1ccnc(NS(=O)(=O)c2ccc(NC3c4ccccc4Oc4ccccc43)cc2)n1` [Compound 1], for which the IC50 in the data set on SARS-CoV-2 [1] (setting [9]) is 12.6 µM; in the data set on Vero CCL-81 cells [2], 28.9 µM; in “in vitro” it was 18.4 µM. In the data set on SARS-CoV-2 [3], the Viral titer is 1.4 × 10^3 FFU/mL. Further, the “Levels of spike protein compared to vehicle” value in the data set on spike protein was “significantly decreased”. The “ACE2 levels compared to vehicle” value in the data set with ACE2 [4] was “did not alter ACE2 expression significantly”. Besides, the “ACE2 Levels (Vero CCL-81 Monkey Cells)” value in the data set with ACE2 [4] is given as “−”. Besides, the “ACE2 expression levels in MDA-MB-231 cells” value (“ACE2 expression levels” below) in the data set with ACE2 [5] is recorded as “did not significantly affect”. Also, the “Cytotoxicity in A549 human lung cells” value in the data set with A549 cells was “did not exhibited cytotoxicity at the tested concentrations”. The “GI50 (concentration that inhibits 50% of cell growth)” value with A549 cells (A549, 48 h, SRB assay) is “not reached with the concentrations tested”. In the data set with Vero CCL-81 cells [6], the “Cytotoxicity in infected Vero CCL-81 cells (number of cell nuclei)” value (from here on “Cytotoxicity … (number of cell nuclei)”) is “some cytotoxicity”.
As for `Cc1cc(C)nc(NS(=O)(=O)c2ccc(NC3c4ccccc4Oc4ccccc43)cc2)n1` [Compound 2], the 50% inhibitory concentration (IC50) with SARS-CoV-2 [1] (setting [9]) came to 11.9 µM; with Vero CCL-81 cells [2] it was 19.8 µM; in the data set “in vitro”, 17.2 µM. Further, the Viral titer in the data set with SARS-CoV-2 [3] is 1.7 × 10^3 FFU/mL. The “Levels of spike protein compared to vehicle” value with spike protein is recorded as “significantly decreased”. For the same compound, in the data set on ACE2 [4], the “ACE2 levels compared to vehicle” value was “did not alter ACE2 expression significantly”. Moreover, the “ACE2 Levels (Vero CCL-81 Monkey Cells)” value in the data set on ACE2 [4] is on record as “−”. For the same compound, in the data set with ACE2 [5], the “ACE2 expression levels” value is reported as “did not significantly affect”. The IC50 at 48 h in [7] was 31.9 µM. Besides, the GI50 in the data set on A549 cells (setting [10]) amounted to 31.9 µM. Also, the “Cytotoxicity … (number of cell nuclei)” value in the data set with Vero CCL-81 cells [6] is “some cytotoxicity”.
Consider `O=C(NC1c2ccccc2Oc2ccccc21)N(O)C1c2ccccc2Oc2ccccc21` [Compound 3], for which, in the data set on SARS-CoV-2 [1], the “Effect on cell infection by SARS-CoV-2” value is “did not inhibit cell infection”. Moreover, in the data set on Vero CCL-81 cells [2], the “Relative cell number of non-infected cells” value was “increased the relative cell number of non-infected cells”. Besides, in the data set on Vero CCL-81 cells [6], the “Cytotoxicity … (number of cell nuclei)” value is on record as “significantly higher cytotoxicity in infected cells compared to non-infected cells”.
For the compound `C[C@H](CCC(=O)N1CCOCC1)[C@H]1CC[C@H]2[C@@H]3CC[C@@H]4C[C@H](O)CC[C@]4(C)[C@H]3C[C@H](O)[C@]12C` [Compound 4], the IC50 in the data set with SARS-CoV-2 [1] (setting [9]) stood at 24.1 µM. Besides, the “Relative cell number of non-infected cells” value with Vero CCL-81 cells [2] is recorded as “increased the relative cell number of non-infected cells”. Moreover, the Viral titer in the data set on SARS-CoV-2 [3] is on record as 1.5 × 10^3 FFU/mL. Moreover, the “Levels of spike protein compared to vehicle” value in the data set with spike protein is given as “significantly decreased”. In the data set on ACE2 [4], the “ACE2 levels compared to vehicle” value was “did not alter ACE2 expression significantly”. In addition, the “ACE2 Levels (Vero CCL-81 Monkey Cells)” value in the data set on ACE2 [4] is recorded as “−”. For the same compound, in the data set on ACE2 [5], the “ACE2 expression levels” value is reported as “did not significantly affect”. Besides, the IC50 at 48 h in data set [7] was determined as 19.8 µM. For the same compound, the GI50 came out at 19.8 µM in the data set with A549 cells (A549, 48 h, SRB assay, read-out: GI50 (concentration that inhibits 50% of cell growth)) and 19.8 µM with A549 cells (setting [10]).
On to `Nc1cccc2c1CCN(c1ccc3c(=O)c4ccc(N5CCc6c(N)cccc6C5)cc4oc3c1)C2` [Compound 5], for which the “Effect on cell infection by SARS-CoV-2” value in the data set on SARS-CoV-2 [1] is on record as “did not inhibit cell infection”.
Same read-out and setting: for `O=c1c2ccc(OCc3cn(C4OC(CO)C(O)C(O)C4O)nn3)cc2oc2cc(OCc3cn(C4OC(CO)C(O)C(O)C4O)nn3)ccc12` (stereo not shown) [Compound 6] the value was “did not inhibit cell infection”.
Take `O=c1c2ccc(OCc3cn(C4OC(COS(=O)(=O)O)C(OS(=O)(=O)O)C(OS(=O)(=O)O)C4OS(=O)(=O)O)nn3)cc2oc2cc(OCc3cn(C4OC(COS(=O)(=O)O)C(OS(=O)(=O)O)C(OS(=O)(=O)O)C4OS(=O)(=O)O)nn3)ccc12` (stereo not shown) [Compound 7]: the half-inhibitory concentration (IC50) in the data set on SARS-CoV-2 [1] (setting [9]) was 31.7 µM. Further, the “Relative cell number of non-infected cells” value in the data set with Vero CCL-81 cells [2] was “increased the relative cell number of non-infected cells”. In the data set on SARS-CoV-2 [3], the “Viral Titer and Spike Levels (Vero CCL-81 Monkey Cells)” value was “−”; the Viral titer is on record as 6.1 × 10^3 FFU/mL. The “Levels of spike protein compared to vehicle” value in the data set on spike protein is “did not cause any significant change”. Also, in the data set with ACE2 [4], the “ACE2 levels compared to vehicle” value was “slight decrease; also recorded: did not alter ACE2 expression significantly” and the “ACE2 Levels (Vero CCL-81 Monkey Cells)” value is “−”. The “Cytotoxicity in A549 human lung cells” value in the data set on A549 cells is reported as “did not exhibited cytotoxicity at the tested concentrations”. In the data set on Vero CCL-81 cells [6], the “Cytotoxicity … (number of cell nuclei)” value is reported as “without causing cytotoxicity”.
`O=c1c2ccccc2oc2c(O)c(OC3OC(COS(=O)(=O)O)C(OS(=O)(=O)O)C(OS(=O)(=O)O)C3OS(=O)(=O)O)ccc12` (stereo not shown) [Compound 8]: the “Effect on cell infection by SARS-CoV-2” value with SARS-CoV-2 [1] is “did not inhibit cell infection”.
`O=c1c2ccc(OCc3cn(C4OC(COS(=O)(=O)O)C(OS(=O)(=O)O)C(OS(=O)(=O)O)C4OS(=O)(=O)O)nn3)cc2oc2cc(OCc3cn(C4OC(COS(=O)(=O)O)C(OS(=O)(=O)O)C(OS(=O)(=O)O)C4OS(=O)(=O)O)nn3)ccc12` (stereo not shown) [Compound 9]: in the data set with SARS-CoV-2 [1], the “Effect on cell infection by SARS-CoV-2” value was “reduced cell infection” and the “IC50(viral), relative number of infected cells” value is “not reached at the tested concentrations”. Further, the “Relative cell number of non-infected cells” value in the data set with Vero CCL-81 cells [2] is recorded as “increased the relative cell number of non-infected cells”. In addition, in the data set on SARS-CoV-2 [3], the “Viral Titer and Spike Levels (Vero CCL-81 Monkey Cells)” value is “−”; the Viral titer is 7.0 × 10^3 FFU/mL. The “Levels of spike protein compared to vehicle” value in the data set with spike protein is “did not cause any significant change”. For the same compound, in the data set on ACE2 [4], the “ACE2 levels compared to vehicle” value is listed as “did not alter ACE2 expression significantly” and the “ACE2 Levels (Vero CCL-81 Monkey Cells)” value is listed as “−”. In addition, the “Cytotoxicity in A549 human lung cells” value with A549 cells is listed as “did not exhibited cytotoxicity at the tested concentrations”. Besides, the “Cytotoxicity … (number of cell nuclei)” value in the data set with Vero CCL-81 cells [6] is given as “without causing cytotoxicity”.
For `O=c1c2ccc(NCc3ccccc3)cc2oc2cc(OS(=O)(=O)C(F)(F)F)ccc12` [Compound 10], in the data set on SARS-CoV-2 [1], the “Effect on cell infection by SARS-CoV-2” value is “did not inhibit cell infection”. Moreover, the “Relative cell number of non-infected cells” value in the data set with Vero CCL-81 cells [2] is “increased the relative cell number of non-infected cells”.
As for `Cc1ccc(C(=O)Nc2ccc(CN3CCN(C)CC3)c(C(F)(F)F)c2)cc1C#Cc1cnc2cccnn12` [Ponatinib, reference compound], the “Effect on cell infection by SARS-CoV-2” value with SARS-CoV-2 [1] is on record as “did not inhibit cell infection”. Further, the IC50 turned out to be 0.93 µM in the data set on SARS-CoV-2 [1] (Severe acute respiratory syndrome coronavirus 2, 48 h, read-out: IC50(viral), relative number of infected cells); 1.36 µM in the data set on Vero CCL-81 cells [2]; 0.7 µM in the data set with Vero CCL-81 cells [8]. Besides, the “Cytotoxicity … (number of cell nuclei)” value in the data set with Vero CCL-81 cells [6] was “some cytotoxicity”.

The values are drawn from PMC10609270 (Molecules, 2023).
